Assay results from patent US9480679B2, “Methods for treating malaria, tuberculosis and MAC diseases” (priority 2009, dated 2016).
Converted amounts (≈) assume the structure as drawn. Read-outs that look alike come from different tables or passages of the source. Marks after values point to notes of the source that are not given here.

Assays:
P. falciparum NF54 [1] = test: In vitro P. falciparum 72 hour assay (48+24); type: cell-based; details: Plasmodium falciparum, NF54
Protocol: EXAMPLE. In vitro and in vivo activity against different species of Plasmodium parasites. CEM-101 was tested against intra-erythrocytic forms of P. falciparum derived from asynchronous cultures of the strain […]. […] CEM-101 was followed for 120 h. CEM-101 has delayed activity when compared to other agents.
In vitro P. falciparum data for CEM-101 in the 72 h Assay (48+24)

[2] = tested on: clinical XDR strains of M. tuberculosis; test: microbe, parasite or virus in culture; type: cell-based; details: Mycobacterium tuberculosis
M. avium LPR ATCC 49601 = test: Murine model of M. avium infection, CFU in spleens and lungs; type: in vivo; details: mice; for reduction in growth of MAC LPR in the spleens and lungs compared to the late controls: P<0.05
P. falciparum NF54 [3] = test: In vitro P. falciparum 120 hour assay (96+24); type: cell-based; details: Plasmodium falciparum, NF54
Protocol: EXAMPLE. In vitro and in vivo activity against different species of Plasmodium parasites. CEM-101 was tested against intra-erythrocytic forms of P. falciparum derived from asynchronous cultures of the strain […]. Parasite growth over 120 h was measured by the incorporation of radiolabelled [^3H]hypoxanthine (in hypoxanthine free culture medium) added after 96 h of drug incubation and 24 h prior to the termination of the test. CEM-101 was followed for 120 h. CEM-101 has delayed activity when compared to other agents.
In vitro P. falciparum data for CEM-101 in the 120 h Assay (96+24)

M. avium = M. avium in vitro activity summary (MIC90, MBC); type: cell-based
[4] = tested on: P. berghei ANKA sporozoites; test: Causal prophylactic P. berghei sporozoite mouse model; type: in vivo
Protocol: EXAMPLE. CEM-101 activity as prophylactic. Mice inoculated IV with 0.1 ml, 100,000 P. berghei ANKA sporozoites from mosquitoes. Drug administered Day −1, 0 and 1, Once daily for 3 days.

## CC[C@H]1OC(=O)[C@@](C)(F)C(=O)[C@H](C)[C@@H](O[C@@H]2O[C@H](C)C[C@H](N(C)C)[C@H]2O)[C@](C)(OC)C[C@@H](C)C(=O)[C@H](C)[C@H]2N(CCCCn3cc(-c4cccc(N)c4)nn3)C(=O)O[C@]12C [CEM-101, solithromycin]
P. falciparum NF54 [1]; 72 h assay (48+24), read-out: IC50 NF54 TEST 3
  IC50: 1.49 µg/mL (≈ 1.76 µM)
P. falciparum NF54 [1]; 72 h assay (48+24), read-out: IC50 NF54 TEST 4
  IC50: 1.26 µg/mL (≈ 1.49 µM)
P. falciparum NF54 [1]; 72 hour assay (48+24), read-out: IC50 NF54 Test 1
  IC50: 0.919 µg/mL (≈ 1.09 µM)
P. falciparum NF54 [1]; 72 hour assay (48+24), read-out: IC50 NF54 Test 2
  IC50: 1.54 µg/mL (≈ 1.82 µM)
P. falciparum NF54 [1]; 72 hour assay (48+24), read-out: IC50 NF54 Test 3
  IC50: 1.49 µg/mL (≈ 1.76 µM)
P. falciparum NF54 [1]; 72 hour assay (48+24), read-out: IC50 NF54 Test 4
  IC50: 1.26 µg/mL (≈ 1.49 µM)
[2]; 168 h, strain OB005, 1 week
  MIC: 3.12 µg/mL (≈ 3.7 µM)
[2]; 168 h, strain OB031, 1 week
  MIC: 0.049 µg/mL (≈ 0.058 µM)
[2]; 168 h, strain OB076a, 1 week
  MIC: 0.049 µg/mL (≈ 0.058 µM)
[2]; 168 h, strain OB076b, 1 week
  MIC: 0.049 µg/mL (≈ 0.058 µM)
[2]; 168 h, strain OB082, 1 week
  MIC: 0.049 µg/mL (≈ 0.058 µM)
[2]; 336 h, strain OB005, 2 weeks
  MIC: 12.5 µg/mL (≈ 14.8 µM)
[2]; 336 h, strain OB019, 2 weeks
  MIC: 1.56 µg/mL (≈ 1.85 µM)
[2]; 336 h, strain OB031, 2 weeks
  MIC: 0.78 to 1.56 µg/mL (≈ 0.923 to 1.85 µM)
[2]; 336 h, strain OB062, 2 weeks
  MIC: 0.39 to 0.78 µg/mL (≈ 0.462 to 0.923 µM)
[2]; 336 h, strain OB076a, 2 weeks
  MIC: 0.098 µg/mL (≈ 0.116 µM)
[2]; 336 h, strain OB076b, 2 weeks
  MIC: 0.049 µg/mL (≈ 0.058 µM)
[2]; 336 h, strain OB081, 2 weeks
  MIC: 12.5 µg/mL (≈ 14.8 µM)
[2]; 336 h, strain OB082, 2 weeks
  MIC: 0.098 µg/mL (≈ 0.116 µM)
[2]; strain OB031, after a week (as the cell number increased)
  MIC: 0.78 to 1.56 µg/mL (≈ 0.923 to 1.85 µM)
[2]; strain OB031, initially
  MIC: 0.049 µg/mL (≈ 0.058 µM)
M. avium LPR ATCC 49601; 25 mg/kg orally 5 days/week for 4 weeks, P>0.05
  reduction in growth of MAC LPR in the spleens and lungs compared to the late controls, significant or not: not
M. avium LPR ATCC 49601; 50 mg/kg orally 5 days/week for 4 weeks
  reduction in growth of MAC LPR in the spleens and lungs compared to the late controls: significant
M. avium LPR ATCC 49601; 100 mg/kg orally 5 days/week for 4 weeks
  reduction in growth of MAC LPR in the spleens and lungs compared to the late controls: significant
M. avium LPR ATCC 49601; 200 mg/kg orally 5 days/week for 4 weeks
  reduction in growth of MAC LPR in the spleens and lungs compared to the late controls: significant
M. avium LPR ATCC 49601; 200 mg/kg, difference not statistically significant (P>0.05)
  reduction in CFU of MAC LPR in spleens and lungs compared to the CLA 200 mg/kg group: greater
P. falciparum NF54 [3]; 120 h assay (96+24), read-out: IC50 NF54
  IC50: 0.0024 µg/mL (≈ 0.00284 µM)
P. falciparum NF54 [3]; 120 hour assay (96+24), read-out: IC50 NF54 Test 1
  IC50: < 0.156 µg/mL
P. falciparum NF54 [3]; 120 hour assay (96+24), read-out: IC50 NF54 Test 2
  IC50: < 0.015 µg/mL
P. falciparum NF54 [3]; 120 hour assay (96+24), read-out: IC50 NF54 Test 3
  IC50: 0.0024 µg/mL (≈ 0.00284 µM)
M. avium; Mycobacterium avium, all strains tested, read-out: MBC
  MBC: 2 µg/mL (≈ 2.37 µM)
M. avium; Mycobacterium avium, susceptible phenotype, N=24, read-out: MIC
  MIC: 1 µg/mL (≈ 1.18 µM)
M. avium; N=30
  MBC (range): 2 (2) μg/mL
  MIC90 (range): 1 (1) μg/mL
M. avium; resistant phenotype, MBCs calculated for 4 of the resistant strains
  MBC: 2^a μg/mL
M. avium; resistant phenotype, N=6
  MIC: 1 µg/mL (≈ 1.18 µM)
M. avium; susceptible phenotype, N=24
  MBC: 2 µg/mL (≈ 2.37 µM)
[4]; 20 mg/kg/d×3 days
  mice remaining parasite free: 3/5
[4]; 40 mg/kg/d×3 days with SC or PO dosing
  outcome in the P. berghei causal mouse model: curative
[4]; causal mouse malaria models, PO dosing at 40 mg/kg/d×3 days
  prophylactic activity: 100%
[4]; mice dosed as low as 40 mg/kg/d×3 days
  blood stage infection after prophylactic dosing: no blood stage infection was detected
[4]; mice, PO, dose 80, once daily Day -1, 0 and 1, (3 mice)
  Activity: Complete curative
[4]; mice, PO, dose 120, once daily Day -1, 0 and 1, (3 mice)
  Activity: Complete curative
[4]; mice, PO, dose 160, once daily Day -1, 0 and 1
  Activity: Complete curative
[4]; mice, SC, dose 40, once daily Day -1, 0 and 1
  Activity: Complete curative
[4]; mice, SC, dose 80, once daily Day -1, 0 and 1
  Activity: Complete curative
[4]; mice, SC, dose 120, once daily Day -1, 0 and 1
  Activity: Complete curative
[4]; mice, SC, dose 160, once daily Day -1, 0 and 1
  Activity: Complete curative
[4]; mice, causal prophylactic model
  minimum active dose: 20 mg/kg/d×3 days
